Measured values from patent US9492428B2, “Compounds, compositions, pharmaceutical compositions, and methods of use” (University of Louisville Research Foundation, Inc., priority 2011, dated 2016).

Tests used:
[1] = system: DU145 cells; experiment: Trypan blue exclusion assay (cell death); format: cell-based, human; details: 10 μM, 72 h
Procedure: FIG. 12. Trypan blue exclusion assay to determine cell death. DU145 prostate cancer cells were left untreated or treated with 10 μM compound I-1 or with vehicle (DMSO) for 72 h. After treatment, all cells (both adherent and floating) were harvested, stained with trypan blue, and counted immediately to determine the percentage of non-viable cells (stained blue). Columns represent the mean of three independent experiments, bars represent standard error, and numbers above each column represent the percentage of blue cells in the sample.
Compound I-1 promotes cell death by apoptosis. Because prolonged cell cycle arrest can cause induction of cell death, we next investigated the viability of prostate cancer cells treated with compound I-1. To begin, we used the trypan blue exclusion assay, which is based on the principle that live cells will exclude membrane-impermeable dyes such as trypan blue, whereas trypan blue will get inside the dead cells and stain them. […] To determine whether apoptosis (programmed cell death) is the cause of cell death induced by compound I-1, we examined the cells for biochemical and morphological markers of apoptosis. […]

[2] = system: PC3 cells; experiment: Immunoblotting of apoptotic markers (cleaved caspase-3, PARP-1) in PC3; format: cell-based, human; details: 10 μM, FIG. 11B
Procedure: FIG. 11. Compound I-1 induces cell cycle arrest and apoptosis in PC3 cells. Prostate cancer cells were left untreated (−) or treated with compound I-1 (10 μM) or with vehicle (DMSO) for the time indicated in the figure. (A) For flow cytometric analysis of cell cycle parameters, cells were fixed, and stained with propidium iodide. Each histogram indicates the percent of cells in G1, S, and G2/M phases of the cell cycle. Data were gated to exclude apoptotic cells for these calculations. (B) After treatment, cells were lysed and total lysates were analyzed for cellular apoptotic markers by immunoblotting using anti-PARP-1 or anti-cleaved Caspase-3 antibodies. Anti-GAPDH-1 antibody was used as loading control. (C) Some 48 h-treated PC3 cells were harvest by trypsinization, washed with PBS, and total DNA was extracted then analyzed on a 1.8% agarose gel. M indicates DNA size marker (base pairs).
Cell Culture and Treatment. All cells were obtained from ATCC and were grown in a humidified incubator at 37° C. with 5% CO2. […] All protein concentrations were determined using the bicinchoninic acid (BCA) protein assay (Pierce, Rockford, Ill.).
Immunoblotting. […] Antibody-reactive proteins were detected using a chemiluminescence substrate (SuperSignal; Pierce, Rockford, Ill.) according to the manufacturer's instructions. […]

C[C@@H]1CC[C@H]2C3C(O[C@]4([C@]5(O)CC6(C)C(=O)OC5C[C@@]6(C)O)CC[C@@]31O4)[C@H]1O[C@]13CC=CC(=O)[C@]23C (stereo partly drawn) [I-1]
dead cells (trypan blue) [1]: ~90% | activation of caspase-3 [2]: able to induce | cleavage of PARP-1 [2]: able to induce
